#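 GI50: concentration for 50% inhibition of growth. TGI denotes the concentration required for complete inhibition of growth.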
# Columns and labels:
# Test in all cases: NCI-60 cell line screen, 384-well format
# RXF 393 renal = test system: RXF 393 renal
# IGROV1 ovarian = test system: IGROV1 ovarian
# HS 578T breast = test system: HS 578T breast
# COLO 205 colon = test system: COLO 205 colon
# SK-MEL-2 melanoma = test system: SK-MEL-2 melanoma
# HL-60(TB) leukemia = test system: HL-60(TB) leukemia
# M14 melanoma = test system: M14 melanoma
# RPMI-8226 leukemia = test system: RPMI-8226 leukemia
# NCI-H322M lung = test system: NCI-H322M lung
# HCT-116 colon = test system: HCT-116 colon
# BT-549 breast = test system: BT-549 breast
# NCI-H226 lung = test system: NCI-H226 lung
# SK-MEL-28 melanoma = test system: SK-MEL-28 melanoma
# NCI/ADR-RES ovarian = test system: NCI/ADR-RES ovarian
# LOX IMVI melanoma = test system: LOX IMVI melanoma
# SNB-75 CNS = test system: SNB-75 CNS
# UO-31 renal = test system: UO-31 renal
# MDA-MB-468 breast = test system: MDA-MB-468 breast
# PC-3 prostate = test system: PC-3 prostate
# T-47D breast = test system: T-47D breast
# SK-OV-3 ovarian = test system: SK-OV-3 ovarian
# MDA-MB-231 breast = test system: MDA-MB-231 breast
# OVCAR-8 ovarian = test system: OVCAR-8 ovarian
# SF-295 CNS = test system: SF-295 CNS
# HCC-2998 colon = test system: HCC-2998 colon
# SN12C renal = test system: SN12C renal
# UACC-257 melanoma = test system: UACC-257 melanoma
# A498 renal = test system: A498 renal
# MOLT-4 leukemia = test system: MOLT-4 leukemia
# KM12 colon = test system: KM12 colon
# OVCAR-3 ovarian = test system: OVCAR-3 ovarian
# CCRF-CEM leukemia = test system: CCRF-CEM leukemia
# UACC-62 melanoma = test system: UACC-62 melanoma
# HT29 colon = test system: HT29 colon
# MDA-MB-435 melanoma = test system: MDA-MB-435 melanoma
# EKVX NSCLC = test system: EKVX NSCLC
# A549 NSCLC = test system: A549 NSCLC
# SW-620 colon = test system: SW-620 colon
# SF-539 CNS = test system: SF-539 CNS
# OVCAR-4 ovarian = test system: OVCAR-4 ovarian
# SNB-19 CNS = test system: SNB-19 CNS
# NCI-H460 NSCLC = test system: NCI-H460 NSCLC
# SF-268 CNS = test system: SF-268 CNS
# CAKI-1 renal = test system: CAKI-1 renal
# MALME-3M melanoma = test system: MALME-3M melanoma
# K-562 leukemia = test system: K-562 leukemia
# HOP-62 NSCLC = test system: HOP-62 NSCLC
structure (smiles),measurement,setting,value
C=CCN(/C=C1\C(=O)O[C@H](COC)[C@@]2(C)C1=C(O)C(=O)C1=C2[C@H](OC(C)=O)C[C@]2(C)C(=O)CC[C@@H]12)CC=C,GI50,RXF 393 renal,82.8 nM
same,TGI,RXF 393 renal,650 nM
same,GI50,IGROV1 ovarian,406 nM
same,TGI,IGROV1 ovarian,5.26 µM
same,GI50,HS 578T breast,1150 nM
same,TGI,HS 578T breast,6.93 µM
same,GI50,COLO 205 colon,793 nM
same,TGI,COLO 205 colon,4.64 µM
same,GI50,SK-MEL-2 melanoma,2360 nM
same,TGI,SK-MEL-2 melanoma,12.3 µM
same,GI50,HL-60(TB) leukemia,156 nM
same,TGI,HL-60(TB) leukemia,983 nM
same,GI50,M14 melanoma,2820 nM
same,TGI,M14 melanoma,30.5 µM
same,GI50,RPMI-8226 leukemia,657 nM
same,TGI,RPMI-8226 leukemia,3.16 µM
same,GI50,NCI-H322M lung,1210 nM
same,TGI,NCI-H322M lung,23.3 µM
same,GI50,HCT-116 colon,4.61 µM
same,TGI,HCT-116 colon,31.4 µM
same,GI50,BT-549 breast,553 nM
same,TGI,BT-549 breast,9.02 µM
same,GI50,NCI-H226 lung,2760 nM
same,TGI,NCI-H226 lung,56.7 µM
same,GI50,SK-MEL-28 melanoma,1590 nM
same,TGI,SK-MEL-28 melanoma,19.7 µM
same,GI50,NCI/ADR-RES ovarian,8.83 µM
same,TGI,NCI/ADR-RES ovarian,> 100 µM
same,GI50,LOX IMVI melanoma,5.49 µM
same,TGI,LOX IMVI melanoma,39.1 µM
same,GI50,SNB-75 CNS,1570 nM
same,TGI,SNB-75 CNS,10.1 µM
same,GI50,UO-31 renal,2810 nM
same,TGI,UO-31 renal,> 100 µM
same,GI50,MDA-MB-468 breast,76.4 nM
same,TGI,MDA-MB-468 breast,2090 nM
same,GI50,PC-3 prostate,648 nM
same,TGI,PC-3 prostate,18 µM
same,GI50,T-47D breast,724 nM
same,TGI,T-47D breast,10.2 µM
same,GI50,SK-OV-3 ovarian,680 nM
same,TGI,SK-OV-3 ovarian,15.3 µM
same,GI50,MDA-MB-231 breast,3.68 µM
same,TGI,MDA-MB-231 breast,> 100 µM
same,GI50,OVCAR-8 ovarian,3.85 µM
same,TGI,OVCAR-8 ovarian,> 100 µM
same,GI50,SF-295 CNS,2120 nM
same,TGI,SF-295 CNS,18.7 µM
same,GI50,HCC-2998 colon,671 nM
same,TGI,HCC-2998 colon,6.09 µM
same,GI50,SN12C renal,2080 nM
same,TGI,SN12C renal,> 100 µM
same,GI50,UACC-257 melanoma,4.01 µM
same,TGI,UACC-257 melanoma,43.9 µM
same,GI50,A498 renal,390 nM
same,TGI,A498 renal,5.3 µM
same,GI50,MOLT-4 leukemia,333 nM
same,TGI,MOLT-4 leukemia,2020 nM
same,GI50,KM12 colon,2660 nM
same,TGI,KM12 colon,96.3 µM
same,GI50,OVCAR-3 ovarian,1160 nM
same,TGI,OVCAR-3 ovarian,12.2 µM
same,GI50,CCRF-CEM leukemia,723 nM
same,TGI,CCRF-CEM leukemia,4.53 µM
same,GI50,UACC-62 melanoma,890 nM
same,TGI,UACC-62 melanoma,8.77 µM
same,GI50,HT29 colon,1080 nM
same,TGI,HT29 colon,21.7 µM
same,GI50,MDA-MB-435 melanoma,8.15 µM
same,TGI,MDA-MB-435 melanoma,38.1 µM
same,GI50,EKVX NSCLC,504 nM
same,TGI,EKVX NSCLC,13.6 µM
same,GI50,A549 NSCLC,1110 nM
same,TGI,A549 NSCLC,27.6 µM
same,GI50,SW-620 colon,7.45 µM
same,TGI,SW-620 colon,> 100 µM
same,GI50,SF-539 CNS,7.45 µM
same,TGI,SF-539 CNS,> 100 µM
same,GI50,OVCAR-4 ovarian,787 nM
same,TGI,OVCAR-4 ovarian,33.5 µM
same,GI50,SNB-19 CNS,13.7 µM
same,TGI,SNB-19 CNS,> 100 µM
same,GI50,NCI-H460 NSCLC,668 nM
same,TGI,NCI-H460 NSCLC,90.1 µM
same,GI50,SF-268 CNS,1820 nM
same,TGI,SF-268 CNS,19.9 µM
same,GI50,CAKI-1 renal,2750 nM
same,TGI,CAKI-1 renal,> 100 µM
same,GI50,MALME-3M melanoma,677 nM
same,TGI,MALME-3M melanoma,12.2 µM
same,GI50,K-562 leukemia,17.6 µM
same,TGI,K-562 leukemia,> 100 µM
same,GI50,HOP-62 NSCLC,10.3 µM
same,TGI,HOP-62 NSCLC,> 100 µM

# — PubChem BioAssay (NCI)
